Results: ChEMBL document CHEMBL1201862, “PubChem BioAssay data set” (2004)
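How tested: cells in 96-well plates exposed to compound for 48 hours at five concentrations. GI50 is the concentration that inhibits growth by half.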 The source made the active and inactive calls. Cut-off read from the data, not from the text of the source: active = GI50 up to about 1.1 µM and inactive = higher.

Columns and labels:
Experiment in all cases: NCI anticancer screen, dose series, 48 h
[1] = system: M14
[2] = system: SN12C
[3] = system: OVCAR-3
[4] = system: SK-MEL-5
[5] = system: RPMI-8226
[6] = system: MOLT-4
[7] = system: A549
[8] = system: EKVX
[9] = system: SK-MEL-28
[10] = system: COLO 205
[11] = system: HL-60
[12] = system: UACC-257
[13] = system: SF-268
[14] = system: UO-31
[15] = system: RXF 393
[16] = system: SK-MEL-2
[17] = system: HOP-62
[18] = system: OVCAR-5
[19] = system: HCT-116
[20] = system: HCC 2998

| Compound | GI50 [1] | GI50 [2] | GI50 [3] | GI50 [4] | GI50 [5] | GI50 [6] | GI50 [7] | GI50 [8] | GI50 [9] | GI50 [10] | GI50 [11] | GI50 [12] | GI50 [13] | GI50 [14] | GI50 [15] | GI50 [16] | GI50 [17] | GI50 [18] | GI50 [19] | GI50 [20] |
| --- | --- | --- | --- | --- | --- | --- | --- | --- | --- | --- | --- | --- | --- | --- | --- | --- | --- | --- | --- | --- |
| NC(=O)c1cc([N+](=O)[O-])cc([N+](=O)[O-])c1 [NITROMIDE] | > 100 µM (inactive) | > 100 µM (inactive) | > 100 µM (inactive) | > 100 µM (inactive) | > 100 µM (inactive) | > 100 µM (inactive) | > 100 µM (inactive) | > 100 µM (inactive) | > 100 µM (inactive) | 30.3 µM (inactive) | 40.9 µM (inactive) | > 100 µM (inactive) | > 100 µM (inactive) | > 100 µM (inactive) | > 100 µM (inactive) | > 100 µM (inactive) | > 100 µM (inactive) | > 100 µM (inactive) | > 100 µM (inactive) | – |
| CC(C)=CC(=O)N1CCN(C(=O)C=C(C)C)CC1 | > 100 µM (inactive) | > 100 µM (inactive) | > 100 µM (inactive) | > 100 µM (inactive) | > 100 µM (inactive) | > 100 µM (inactive) | > 100 µM (inactive) | > 100 µM (inactive) | > 100 µM (inactive) | – | > 100 µM (inactive) | > 100 µM (inactive) | > 100 µM (inactive) | > 100 µM (inactive) | – | – | > 100 µM (inactive) | > 100 µM (inactive) | > 100 µM (inactive) | > 100 µM (inactive) |
| O=S(=O)(N/N=C1\CC2CCC1C2)c1ccccc1 (stereo not drawn) | > 100 µM (inactive) | > 100 µM (inactive) | > 100 µM (inactive) | > 100 µM (inactive) | > 100 µM (inactive) | > 100 µM (inactive) | > 100 µM (inactive) | > 100 µM (inactive) | > 100 µM (inactive) | > 100 µM (inactive) | > 100 µM (inactive) | > 100 µM (inactive) | > 100 µM (inactive) | > 100 µM (inactive) | – | > 100 µM (inactive) | > 100 µM (inactive) | > 100 µM (inactive) | > 100 µM (inactive) | – |
| CCCNC(=O)NNC(=O)c1c[nH]c2nc(C)ccc2c1=O | > 100 µM (inactive) | > 100 µM (inactive) | > 100 µM (inactive) | > 100 µM (inactive) | > 100 µM (inactive) | > 100 µM (inactive) | > 100 µM (inactive) | > 100 µM (inactive) | > 100 µM (inactive) | > 100 µM (inactive) | > 100 µM (inactive) | > 100 µM (inactive) | > 100 µM (inactive) | > 100 µM (inactive) | > 100 µM (inactive) | > 100 µM (inactive) | > 100 µM (inactive) | > 100 µM (inactive) | > 100 µM (inactive) | – |
| CN1C(=S)CSc2ccccc21 | > 100 µM (inactive) | > 100 µM (inactive) | > 100 µM (inactive) | 97.1 µM (inactive) | 89.7 µM (inactive) | > 100 µM (inactive) | > 100 µM (inactive) | 44.1 µM (inactive) | > 100 µM (inactive) | > 100 µM (inactive) | > 100 µM (inactive) | > 100 µM (inactive) | > 100 µM (inactive) | 42.3 µM (inactive) | > 100 µM (inactive) | > 100 µM (inactive) | > 100 µM (inactive) | > 100 µM (inactive) | > 100 µM (inactive) | – |
| Nc1nc(N)nc(CC(=O)O)n1 | > 100 µM (inactive) | > 100 µM (inactive) | > 100 µM (inactive) | > 100 µM (inactive) | > 100 µM (inactive) | > 100 µM (inactive) | > 100 µM (inactive) | > 100 µM (inactive) | > 100 µM (inactive) | > 100 µM (inactive) | > 100 µM (inactive) | > 100 µM (inactive) | > 100 µM (inactive) | > 100 µM (inactive) | > 100 µM (inactive) | > 100 µM (inactive) | > 100 µM (inactive) | > 100 µM (inactive) | > 100 µM (inactive) | – |
| O=C1CN=C(C[N+](=O)[O-])c2ccccc21 | > 100 µM (inactive) | > 100 µM (inactive) | > 100 µM (inactive) | > 100 µM (inactive) | > 100 µM (inactive) | > 100 µM (inactive) | > 100 µM (inactive) | > 100 µM (inactive) | > 100 µM (inactive) | > 100 µM (inactive) | > 100 µM (inactive) | > 100 µM (inactive) | > 100 µM (inactive) | > 100 µM (inactive) | – | > 100 µM (inactive) | > 100 µM (inactive) | > 100 µM (inactive) | > 100 µM (inactive) | – |
| COc1ccc2nc3c([N+](=O)[O-])ccc(NCCN(C)C)c3c(N)c2c1 | 1.49 µM (inactive) | 1.33 µM (inactive) | 0.562 µM (active) | 1.81 µM (inactive) | 0.0703 µM (active) | 0.479 µM (active) | 1.55 µM (inactive) | 1.71 µM (inactive) | 2.14 µM (inactive) | 0.859 µM (active) | 0.194 µM (active) | 1.91 µM (inactive) | 1.34 µM (inactive) | 1.35 µM (inactive) | 1.57 µM (inactive) | 2.37 µM (inactive) | 1.66 µM (inactive) | 1.52 µM (inactive) | 0.145 µM (active) | – |
| Cc1cc2nc3c(C#N)c4c(c(Nc5ccc(Cl)cc5)n3c2cc1C)CCC4 | – | 19.4 µM (inactive) | 17.9 µM (inactive) | 18.2 µM (inactive) | 3.66 µM (inactive) | 6.03 µM (inactive) | – | 33.8 µM (inactive) | 22.1 µM (inactive) | 25.2 µM (inactive) | – | 16 µM (inactive) | 18.4 µM (inactive) | – | 17.3 µM (inactive) | – | 58.7 µM (inactive) | 17.3 µM (inactive) | 16.7 µM (inactive) | – |
| CC(=O)Oc1cc(/C=C/c2ccc(O)cc2)cc(OC(C)=O)c1 | 64.6 µM (inactive) | 19 µM (inactive) | 48 µM (inactive) | 14.5 µM (inactive) | 4.7 µM (inactive) | 16.8 µM (inactive) | 24.8 µM (inactive) | – | 66.5 µM (inactive) | > 100 µM (inactive) | 18.8 µM (inactive) | 30.9 µM (inactive) | 43.2 µM (inactive) | 36.4 µM (inactive) | 58.1 µM (inactive) | 63.5 µM (inactive) | 48.2 µM (inactive) | 46 µM (inactive) | 35.6 µM (inactive) | – |
| OC1C2CN3CCN(C2)CC1(c1ccccc1)C3 (stereo not drawn) | – | > 100 µM (inactive) | > 100 µM (inactive) | > 100 µM (inactive) | > 100 µM (inactive) | > 100 µM (inactive) | – | > 100 µM (inactive) | > 100 µM (inactive) | > 100 µM (inactive) | > 100 µM (inactive) | > 100 µM (inactive) | > 100 µM (inactive) | > 100 µM (inactive) | > 100 µM (inactive) | > 100 µM (inactive) | > 100 µM (inactive) | > 100 µM (inactive) | > 100 µM (inactive) | – |
| CC1=C(C(=O)O)N2C(=O)[C@@H](NC(=O)C(c3ccc(O)cc3)N3CSC(=S)N(C(C)C)C3)C2SC1 (stereo partly drawn) | > 100 µM (inactive) | > 100 µM (inactive) | 99.1 µM (inactive) | > 100 µM (inactive) | > 100 µM (inactive) | > 100 µM (inactive) | > 100 µM (inactive) | > 100 µM (inactive) | > 100 µM (inactive) | 97.7 µM (inactive) | > 100 µM (inactive) | > 100 µM (inactive) | > 100 µM (inactive) | > 100 µM (inactive) | – | > 100 µM (inactive) | > 100 µM (inactive) | > 100 µM (inactive) | > 100 µM (inactive) | – |
| O=C(c1ccccc1)c1c(CC(O)c2ccccc2)n(C(=O)c2ccccc2)c2ccccc12 (stereo not drawn) | 33 µM (inactive) | – | 28.8 µM (inactive) | 29.2 µM (inactive) | 25.2 µM (inactive) | 16.6 µM (inactive) | 31.6 µM (inactive) | – | 95.1 µM (inactive) | 47.6 µM (inactive) | 31.3 µM (inactive) | 35.3 µM (inactive) | 43.5 µM (inactive) | 19.9 µM (inactive) | – | 36.5 µM (inactive) | 24.2 µM (inactive) | > 100 µM (inactive) | 23.1 µM (inactive) | 42.1 µM (inactive) |
| Cc1nnc2nc(-c3ccc(Cl)cc3Cl)cc(-c3ccc(Cl)cc3)n12 | > 100 µM (inactive) | > 100 µM (inactive) | 50.1 µM (inactive) | 68.5 µM (inactive) | 35.6 µM (inactive) | 15.5 µM (inactive) | 76.4 µM (inactive) | – | 21 µM (inactive) | 13.7 µM (inactive) | > 100 µM (inactive) | > 100 µM (inactive) | 83.9 µM (inactive) | 24.4 µM (inactive) | – | – | > 100 µM (inactive) | > 100 µM (inactive) | > 100 µM (inactive) | – |
| COc1cc(C/C=C/c2ccccc2)c(OC)cc1O [VIOLASTYRENE] | 19.2 µM (inactive) | 19.1 µM (inactive) | 20.1 µM (inactive) | 23.7 µM (inactive) | 15.6 µM (inactive) | 18.6 µM (inactive) | 43.9 µM (inactive) | 18.1 µM (inactive) | 18.7 µM (inactive) | 22.3 µM (inactive) | 23.6 µM (inactive) | 29.4 µM (inactive) | 25.9 µM (inactive) | 16.8 µM (inactive) | – | 23.2 µM (inactive) | – | 24.7 µM (inactive) | 17.3 µM (inactive) | 16.7 µM (inactive) |
| CN(C)CC/C(=N\Nc1ccc(Cl)c(Cl)c1)c1ccccc1 | – | 2.14 µM (inactive) | 2.8 µM (inactive) | 1.84 µM (inactive) | 2.31 µM (inactive) | 2.17 µM (inactive) | 1.96 µM (inactive) | 1.82 µM (inactive) | 2.52 µM (inactive) | 1.77 µM (inactive) | 2.29 µM (inactive) | 3 µM (inactive) | 1.79 µM (inactive) | 1.45 µM (inactive) | 2.55 µM (inactive) | – | 2.4 µM (inactive) | 2.56 µM (inactive) | 1.73 µM (inactive) | – |
